The source of these data is patent publication US20140328930A1, “Pharmaceutical Compositions” (Alpharma Pharmaceuticals, LLC, priority 2007, published 2014).

Where a name gives a salt, the structure may show the parent alone.

A short description of one data set: clinical. Conditions: human, in vivo, 2.4 mg.
The conditions of data set [1]: single dose 2.4 mg naltrexone, fasted.
The conditions of data set [2]: cited from earlier work.

On to `O=C1CC[C@@]2(O)[C@H]3Cc4ccc(O)c5c4[C@@]2(CCN3CC2CC2)[C@H]1O5` [Naltrexone HCl Solution], for which, in the data set “clinical”, the Tmax (usually the time at which the peak concentration occurs) was found to be 1.13 h, the concentration at 0 h turned out to be 0 ng/mL, the concentration at 0.5 h came out at 0.455 ng/mL and the concentration at 1 h turned out to be 0.629 ng/mL. In “clinical”, this molecule came in with a concentration at 2 h of 0.465 ng/mL, a concentration at 3 h of 0.286 ng/mL, a concentration at 4 h of 0.182 ng/mL and a concentration at 5 h of 0.133 ng/mL. In “clinical”, the concentration at 6 h stood at 0.0957 ng/mL, the concentration at 8 h stood at 0.0518 ng/mL, the concentration at 10 h turned out to be 0.0287 ng/mL and the concentration at 12 h came to 0.0205 ng/mL. For the same molecule, in “clinical”, the concentration at 16 h turned out to be 0.00996 ng/mL, the concentration at 24 h worked out at 0.00316 ng/mL, the concentration at 36 h came to 0.000607 ng/mL and the concentration at 48 h is 0 ng/mL. In “clinical”, the concentration at 60 h amounted to 0 ng/mL, the concentration at 72 h was 0 ng/mL, the concentration at 84 h was determined as 0 ng/mL and the concentration at 96 h came to 0 ng/mL. In the data set “clinical”, this molecule returned a concentration at 120 h of 0 ng/mL. Moreover, the area under the curve AUC(0-t) (as a rule, the area under the concentration-time curve up to a stated or last time point) in the data set “clinical” (Naltrexone AUC0-t, Mean, single dose 2.4 mg naltrexone, fasted) amounted to 2.2 ng·h/mL. For the same molecule, in “clinical” (Naltrexone AUCinf, Mean, single dose 2.4 mg naltrexone, fasted), the AUC(0-inf) (usually total exposure, with the tail of the curve extrapolated) was found to be 2.24 ng·h/mL. Further, the peak level in the data set “clinical” (Naltrexone Cmax, Mean, single dose 2.4 mg naltrexone, fasted) (Cmax) was 0.689 ng/mL. In addition, the AUC(0-inf) in the data set “clinical” (Naltrexone ln(AUCinf), Geometric Mean, Least Squares Mean of log-transformed values) is 1.99 ng·h/mL. Further, the AUC(0-t) in the data set “clinical” (Naltrexone ln(AUClast), Geometric Mean, Least Squares Mean of log-transformed values) is 1.95 ng·h/mL. Further, in “clinical” (Naltrexone ln(Cmax), Geometric Mean, Least Squares Mean of log-transformed values), the peak level (Cmax) was 0.58 ng/mL. Besides, in data set [1], the “Naltrexone Tlast, Mean” value turned out to be 20.00 h and the “Naltrexone λz, Mean” value is 0.2013 h⁻¹.
`O=C1CC[C@@]2(O)[C@H]3Cc4ccc(O)c5c4[C@@]2(CCN3CC2CC2)[C@H]1O5` [naltrexone]: the Protein binding result in data set [2] (in vivo) was “approximately 21%”. In addition, the Oral bioavailability in data set [2] (oral) is 5-40%.
